From patent US20230110354A1, “THERAPEUTIC AGENT DELIVERY SYSTEMS AND METHODS OF FORMING AND USES THEREOF” (The Regents of the University of Colorado, a Body Corporate, priority 2020, published 2023)
Where a name gives a salt, the structure may show the parent alone.

What was measured:
[1] = package insert; cited from earlier work
[2] = Lidocaine release study, lidocaine-loaded nanoparticles in crosslinked gelatin hydrogel (UV-Vis 280 nm); type: physicochemical
Method: For the lidocaine release study, a coated tubing which comprises a dried 1 cm by 0.5 cm piece of gelatin-lidocaine (100 mg lidocaine in 0.5 ml gelatin, 1% GA) was used. The coated tubing was placed in a 7 ml glass scintillation vial for the release study. The release solution medium (1 ml of PBS) was added to the scintillation vials, and the sample was incubated at 37° C. 1 ml samples were taken daily, and the release solution was replenished. The day 0 sample was taken 5 minutes after adding the release solution to the vials to measure the amount of lidocaine not incorporated into the gels.
The amount of lidocaine released as an effect of different nanoparticle formulations and differing amounts of lidocaine was determined using a UV-Vis spectrophotometer (GENESYS 10S UV-Vis) at 280 nm wavelength and samples were performed in triplicate (n=3). As a control, the same gelatin samples were prepared without the addition of lidocaine to measure any change in absorbance readings from the gel itself.

[3] = Lidocaine release study, gelatin-lidocaine hydrogel (UV-Vis 280 nm); type: physicochemical
Method: The coated tubing was placed in a 7 ml glass scintillation vial for the release study.
The release solution medium (1 ml of PBS) was added to the scintillation vials, and the sample was incubated at 37° C. 1 ml samples were taken daily, and the release solution was replenished. The day 0 sample was taken 5 minutes after adding the release solution to the vials to measure the amount of lidocaine not incorporated into the gels. […] As a control, the same gelatin samples were prepared without the addition of lidocaine to measure any change in absorbance readings from the gel itself.

[4] = In vitro protein release test from SRTG micelle system (ELISA); type: physicochemical; conditions: for loading efficiency of protein in the hydrogel / loaded protein released by day 1 (burst release): SRTG 5 wt% + micelle NPs; for loading efficiency of protein in the hydrogel: 500 ng of each protein, day 0 sample after 5 min; for loaded protein released by day 1 (burst release): PBS with 0.2% BSA, 37° C.; for sustained release rate: after day 0 / day 1 through 28 days
Method: Proton nuclear magnetic resonance (1H NMR) was completed with a Varian Inova 500 NMR spectrometer. 1H NMR was used to confirm the structure of PEG-PSHU-PEG. The PEG-PSHU-PEG samples to be analyzed were dissolved in 600 μL of DMSO-d6. Protein Release Test. […] Solutions were mixed and left to dissolve overnight at 4° C. […] Then, 1 mL of warm (37° C.) release solution (lx PBS with 0.2% BSA) was added to the vials. After 5 min, 1 mL of release solution was removed from each sample for the day 0 time point, and 1 mL of fresh warm release solution was added. Samples were then taken every 24 h and immediately placed in a −80° C. freezer for further analysis. Enzyme-linked immunosorbent assay (ELISA) was used to quantify the concentration of proteins in the release solution samples following the manufacturer's instructions (Peprotech, Rocky Hill, N.J.). ELISA color development was monitored with a BioTek Synergy 2 Multi-Mode Reader at 405 nm with wavelength correction set at 650 nm. The results of three replicates were averaged. The hydrogels were initially allowed to stabilize for 5 min at which a sample was taken to determine the loading efficiency of the proteins in the hydrogels (day 0).

[5] = tested on: NIH3T3 cells; conditions: 10 pg/mL, low serum or serum-free medium; cited from earlier work
[6] = cited from earlier work

Molecule: CCN(CC)CC(=O)Nc1c(C)cccc1C [lidocaine hydrochloride]
- maximum dose at one time [1]: ≤ 300 mg
- maximum subcutaneous dose [1]: about 4.5 mg/kg

Molecule: CCN(CC)CC(=O)Nc1c(C)cccc1C [lidocaine]
- duration of sustained release of lidocaine ([2]; 20 mg and 10 mg NP groups loaded with 100 mg of lidocaine, in gelatin hydrogel, PBS, 37° C.): 10 days
- duration of sustained release of lidocaine ([2]; 50 mg lidocaine groups, NP formulations in gelatin hydrogel): 11 days
- period of continued stable lidocaine elution, post-sterilization ([2]; Example 6, chest tube coated with micelle-loaded crosslinked gelatin): 3 to 7 days
- period of continued stable lidocaine elution, post-sterilization ([3]; Example 7, chest tube coated with lidocaine loaded crosslinked gelatin): 3 to 7 days
- duration of sustained release of lidocaine ([3]; various gelatin and glutaraldehyde concentrations, coated tubing method): 10 days

Molecule: PDGF
- loading efficiency of protein in the hydrogel [4]: 99%
- loaded protein released by day 1 (burst release) [4]: approximately 3%
- sustained release rate ([4]; SRTG micelle system): 0.39 ng per day
- duration of sustained release from the delivery system ([4]; in vitro, SRTG micelle system): 28 days

Molecule: TGF-β1: transforming growth factor-β1, literature example
- effect on growth rate of NIH3T3 cells [5]: stimulated the growth rate of NIH3T3 cells

B1: IL-10: Recombinant Murine IL-10, anti-inflammatory cytokine; cited Kd is for human IL-10 (protein, UniProt P18893 19-178, looked up)
Interleukin-10: SRGQYSREDNNCTHFPVGQSHMLLELRTAFSQVKTFFQTKDQLDNILLTDSLMQDFKGYLGCQALSEMIQFYLVEVMPQAEKHGPEIKEHLNSLGEKLKTLRMRLRRCHRFLPCENKSKAVEQVKSDFNKLQDQGVYKAMNEFDIFINCIEAYMMIKMKS
- loading efficiency of protein in the hydrogel [4]: 93%
- loaded protein released by day 1 (burst release) [4]: approximately 21%
- sustained release rate ([4]; SRTG micelle system): 0.24 ng per day
- half-life in vivo [6]: less than 5 h
